The source of these data is ChEMBL document CHEMBL4706766, “Novel Bromodomain BRD4 Inhibitors for Treating Cancer” (ACS Med Chem Lett, 2021).

The target in experiment [1] is T1, Bromodomain-containing protein 4 (Homo sapiens, UniProt O60885). The experiment in a line: Binding affinity to His-6 tagged BRD4 BD2 bromodomain (unknown origin) incubated for 10 mins by TR-FRET assay. In general terms: In TR-FRET formats the signal depends on donor and acceptor labels being close together.
In experiment [2] the target is T1, Bromodomain-containing protein 4. The experiment is described as follows: Binding affinity to His-6 tagged BRD4 BD1 bromodomain (unknown origin) incubated for 10 mins by TR-FRET assay.

Broadly, the IC50 is the midpoint of a concentration-inhibition curve. As for `COC(=O)c1cc2c(cc1CS(C)(=O)=O)-c1cn(C)c(=O)c3[nH]cc(c13)CN2c1ncc(C#CCN)cc1F`, the IC50 is 3.7 nM in experiment [1] and 3.3 nM in experiment [2].
